Results: article PMC6714936 (Clinical and Applied Thrombosis/Hemostasis, 2019)

Molecular target: factor Xa (Bos taurus, UniProt P00743)
Assay: kinetic amidolytic
Format: biochemical

Chain of factor Xa (P00743 41-180): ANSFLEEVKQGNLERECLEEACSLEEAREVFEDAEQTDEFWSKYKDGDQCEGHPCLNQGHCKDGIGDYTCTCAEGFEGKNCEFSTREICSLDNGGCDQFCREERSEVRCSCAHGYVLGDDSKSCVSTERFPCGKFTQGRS
Chain of factor Xa (P00743 234-492): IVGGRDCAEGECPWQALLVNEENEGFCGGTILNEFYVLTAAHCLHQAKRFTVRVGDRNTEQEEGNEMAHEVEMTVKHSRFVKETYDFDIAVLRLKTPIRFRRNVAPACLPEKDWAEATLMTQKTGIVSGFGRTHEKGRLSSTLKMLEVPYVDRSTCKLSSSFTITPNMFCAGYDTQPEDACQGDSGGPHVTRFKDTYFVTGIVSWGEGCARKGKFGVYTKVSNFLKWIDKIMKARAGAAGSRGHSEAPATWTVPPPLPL

## COc1ccc(NC(=O)c2ccc(C(=N)N(C)C)cc2)c(C(=O)Nc2ccc(Cl)cn2)c1 [Betrixaban]
  IC50: 2880 nM
